# Source: patent publication US10150728B2, “Alkylene derivatives” (Shionogi & Co., Ltd., priority 2013, dated 2018)
# Molecular target: recombinant human ACC1 (Homo sapiens (Human), UniProt Q13085)
# Test: Measurement of inhibitory activity on human ACC1 (MALDI-TOF MS, acetyl CoA to malonyl CoA conversion)
# Assay type: biochemical
# Conditions: not given
# Text: Preparation 2: Preparation of Recombinant Human ACC1
# After a cDNA encoding human ACC1 (1 amino acid residue to 2346 amino acid residues from the N-terminus) was cloned from human liver cDNA library (BioChain), human ACC1 gene containing myc-tag and His-tag sequence at 3′ terminus was inserted into pIEXBAC3 (Novagen). Recombinant baculovirus was generated using FlashBACGOLD system (Oxford Expression Technologies) according to the manufacturer's protocol. To express human ACC1, Sf-9 cells were infected with recombinant baculovirus. After infected cells were disrupted, the filtrated lysate was subjected to Ni-affinity chromatography and anion-exchange chromatography. The fractions containing human ACC1 protein were pooled as recombinant human ACC1 solution.
# The Measurement of Inhibitory Activity on Human ACC1 and the ACC2
# Recombinant human ACC1 and recombinant human ACC2, which were prepared by the method mentioned above, were preincubated with assay buffer solution (50 mM HEPES-KOH (pH 7.4), 10 mM magnesium chloride, 6-10 mM potassium citrate, 4 mM reduced form of glutathione, 1.5 mg/ml bovine serum albumin) for one hour. Then, 0.2 μL of each this invention compound solution (in DMSO) were dispensed to 384-well microplate, 5 μL of the preincubated enzyme solution and 5 μL of substrate solution (50 mM HEPES-KOH (pH 7.4), 1 mM ATP, 0.8 mM acetyl CoA and 25-50 mM potassium bicarbonate) were added to microplate. After centrifugation and shaking, the reaction mixtures were incubated in a humidified box at room temperature for 1 to 3 hours. After the incubation, the enzyme reactions were stopped by the addition of EDTA. Then, after the samples were cocrystallized with CHCA (α-cyano-4-hydroxy cinnamic acid) matrices on MALDI target plate, by using the matrix assist laser […] time-of-flight mass spectrometer (MALDI-TOF MS), samples were measured in reflector negative mode. Deprotonated ions of acetyl CoA (AcCoA) of substrate and malonyl CoA (MalCoA) of the reaction product were detected, then, the conversion rates of acetyl CoA to malonyl CoA was calculated by the intensity of [MalCoA-H]−/(Intensity of [MalCoA-H]−+Intensity of [AcCoA-H]−) using each signal strength. […] In addition, potassium citrate concentrations in assay buffer solution, potassium hydrogen carbonate concentrations in substrate solution and incubation time were adjusted by each lot of enzyme.
row,IC50,SMILES
1,> 100000 nM,CC(=O)N[C@@H](C)CC(=O)c1ccc(Oc2ccc(OCC3CC3)cc2Cl)cc1 [Compound I-001]
2,> 100000 nM,CC(=O)N[C@@H](C)COc1cnc(Oc2ccc3nc(C(C)C)ncc3c2Cl)cn1 [Compound I-081]
3,> 100000 nM,CCOc1nc2ccc(OC[C@H]3C[C@H](OC[C@H](C)NC(C)=O)C3)c(C#N)c2s1 [Compound I-103]
4,> 100000 nM,CC(=O)N[C@@H](C)CO[C@H]1C[C@H](COc2ccc3nc(C(C)(F)F)sc3c2Cl)C1 [Compound I-098]
5,> 100000 nM,CCn1c(=O)sc2c(F)c(Oc3cnc(O[C@@H](C)[C@H](C)NC(C)=O)cn3)ccc21 [Compound I-058]
6,> 100000 nM,CC(=O)N[C@@H](C)CO[C@H]1CC[C@H](Oc2ccc3nn(C(C)C)cc3c2Cl)CC1 [Compound I-067]
7,> 100000 nM,CC(=O)N[C@H]1CCC[C@@H]1Oc1ccc(Oc2ccc3nc(C(C)C)sc3c2Cl)cn1 [Compound I-106]
8,> 100000 nM,CC(=O)N[C@@H](C)COc1cnc(Oc2ccc3nc(C(C)C)oc3c2Cl)cn1 [Compound I-037]
9,> 100000 nM,CC(=O)N[C@@H](C)COc1cnc(Oc2ccc(C(=O)NC3CCOCC3)c(F)c2F)cn1 [Compound I-091]
10,> 100000 nM,CCCc1ccc(Oc2ccc(OC[C@H](C)NC(=O)OC(C)(C)C)cn2)c(Cl)c1 [Compound I-003]
11,> 100000 nM,CC(=O)N[C@@H](C)CO[C@H]1CC[C@H](Oc2ncc3cc(Br)ccc3n2)CC1 [Compound I-079]
12,> 100000 nM,CC(=O)N[C@@H](C)CC(=O)c1cnc(Oc2ccc(OCC3CC3)cc2Cl)s1 [Compound I-002]

# Molecular target: recombinant human ACC2 (Homo sapiens (Human), UniProt O00763)
# Test: Measurement of inhibitory activity on human ACC2 (MALDI-TOF MS, acetyl CoA to malonyl CoA conversion)
# Assay type: biochemical
# Conditions: Table 154
# Method in brief: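 His-tagged human ACC2 (residues 27–2458) from baculovirus-infected Sf-9 cells was preincubated 1 h in pH 7.4 HEPES-KOH buffer with MgCl2, 6-10 mM potassium citrate, glutathione and BSA. Substrate solution held 1 mM ATP, 0.8 mM acetyl CoA and 25-50 mM bicarbonate. After 1–3 h at room temperature, malonyl CoA/(malonyl+acetyl CoA) was read by negative-mode MALDI-TOF MS; citrate, bicarbonate and time varied by enzyme lot.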
# Sequence of recombinant human ACC2 (O00763 27-2458): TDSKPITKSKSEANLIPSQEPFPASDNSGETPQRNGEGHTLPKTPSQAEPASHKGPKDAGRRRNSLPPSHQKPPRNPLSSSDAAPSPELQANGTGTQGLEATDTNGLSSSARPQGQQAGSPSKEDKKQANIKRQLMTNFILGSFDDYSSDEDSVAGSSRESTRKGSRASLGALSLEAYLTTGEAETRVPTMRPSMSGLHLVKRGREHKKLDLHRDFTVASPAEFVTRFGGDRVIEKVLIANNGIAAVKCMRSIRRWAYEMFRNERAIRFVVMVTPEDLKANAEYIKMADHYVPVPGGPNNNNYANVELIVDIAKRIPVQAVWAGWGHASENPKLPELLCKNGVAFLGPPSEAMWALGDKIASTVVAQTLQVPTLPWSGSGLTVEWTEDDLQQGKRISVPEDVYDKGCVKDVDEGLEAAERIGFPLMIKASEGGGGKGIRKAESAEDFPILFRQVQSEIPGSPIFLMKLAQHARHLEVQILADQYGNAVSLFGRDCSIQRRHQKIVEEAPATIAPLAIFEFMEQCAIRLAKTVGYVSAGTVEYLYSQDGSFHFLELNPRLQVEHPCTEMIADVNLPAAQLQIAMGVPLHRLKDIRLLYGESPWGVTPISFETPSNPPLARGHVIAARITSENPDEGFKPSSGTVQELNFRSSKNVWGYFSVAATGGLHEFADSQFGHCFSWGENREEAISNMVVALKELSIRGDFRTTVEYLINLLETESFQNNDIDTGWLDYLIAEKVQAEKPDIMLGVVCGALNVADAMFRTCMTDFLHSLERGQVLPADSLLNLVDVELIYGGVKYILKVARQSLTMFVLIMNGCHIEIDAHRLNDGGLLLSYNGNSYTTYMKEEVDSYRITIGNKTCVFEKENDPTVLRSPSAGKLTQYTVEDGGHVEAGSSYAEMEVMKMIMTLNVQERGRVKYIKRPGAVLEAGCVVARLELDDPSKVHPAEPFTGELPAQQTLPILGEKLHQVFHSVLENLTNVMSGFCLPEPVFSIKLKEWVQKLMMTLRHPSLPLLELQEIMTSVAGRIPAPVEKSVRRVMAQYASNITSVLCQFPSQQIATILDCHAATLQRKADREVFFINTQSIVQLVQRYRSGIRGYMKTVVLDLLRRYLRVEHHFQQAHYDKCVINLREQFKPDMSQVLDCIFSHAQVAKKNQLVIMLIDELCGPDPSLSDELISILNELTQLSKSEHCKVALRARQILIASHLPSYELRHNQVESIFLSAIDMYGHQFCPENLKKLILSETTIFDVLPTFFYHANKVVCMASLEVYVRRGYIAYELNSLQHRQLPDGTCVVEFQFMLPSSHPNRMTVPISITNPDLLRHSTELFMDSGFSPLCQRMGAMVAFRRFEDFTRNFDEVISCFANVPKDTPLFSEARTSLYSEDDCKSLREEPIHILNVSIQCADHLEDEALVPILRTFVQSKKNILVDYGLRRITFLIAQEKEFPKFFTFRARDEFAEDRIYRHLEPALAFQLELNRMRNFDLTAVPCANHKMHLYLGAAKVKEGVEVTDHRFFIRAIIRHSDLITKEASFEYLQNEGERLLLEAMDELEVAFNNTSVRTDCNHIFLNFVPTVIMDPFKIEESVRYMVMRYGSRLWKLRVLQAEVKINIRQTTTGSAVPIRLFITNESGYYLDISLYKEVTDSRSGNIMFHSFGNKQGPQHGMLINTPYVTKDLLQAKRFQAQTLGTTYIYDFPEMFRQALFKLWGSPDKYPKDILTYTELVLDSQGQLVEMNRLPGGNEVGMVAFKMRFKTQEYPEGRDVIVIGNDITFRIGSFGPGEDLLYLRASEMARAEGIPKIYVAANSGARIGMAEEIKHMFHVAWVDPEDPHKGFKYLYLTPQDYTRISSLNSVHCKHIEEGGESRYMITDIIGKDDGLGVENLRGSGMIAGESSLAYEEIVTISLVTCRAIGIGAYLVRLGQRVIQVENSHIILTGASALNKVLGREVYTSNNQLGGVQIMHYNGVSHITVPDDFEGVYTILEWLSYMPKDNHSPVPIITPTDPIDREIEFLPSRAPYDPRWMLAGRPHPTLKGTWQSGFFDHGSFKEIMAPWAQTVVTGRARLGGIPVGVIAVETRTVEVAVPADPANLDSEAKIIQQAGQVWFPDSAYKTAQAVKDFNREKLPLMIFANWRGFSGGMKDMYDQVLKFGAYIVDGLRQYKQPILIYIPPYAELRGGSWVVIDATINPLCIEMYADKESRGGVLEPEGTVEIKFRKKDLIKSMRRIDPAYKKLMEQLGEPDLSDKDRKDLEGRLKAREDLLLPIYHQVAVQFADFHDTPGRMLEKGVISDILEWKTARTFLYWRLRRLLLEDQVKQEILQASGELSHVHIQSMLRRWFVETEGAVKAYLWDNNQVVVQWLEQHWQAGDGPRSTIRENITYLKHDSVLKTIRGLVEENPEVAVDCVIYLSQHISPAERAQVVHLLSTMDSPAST
row,IC50,SMILES
1,71 nM,CC(=O)N[C@@H](C)CC(=O)c1ccc(Oc2ccc(OCC3CC3)cc2Cl)cc1 [Compound I-001]
2,344 nM,CC(=O)N[C@@H](C)COc1cnc(Oc2ccc3nc(C(C)C)ncc3c2Cl)cn1 [Compound I-081]
3,4500 nM,CCOc1nc2ccc(OC[C@H]3C[C@H](OC[C@H](C)NC(C)=O)C3)c(C#N)c2s1 [Compound I-103]
4,792 nM,CC(=O)N[C@@H](C)CO[C@H]1C[C@H](COc2ccc3nc(C(C)(F)F)sc3c2Cl)C1 [Compound I-098]
5,933 nM,CC(=O)N[C@@H](C)CO[C@H]1CC[C@H](Oc2ccc3nn(C(C)C)cc3c2Cl)CC1 [Compound I-067]
6,91 nM,CC(=O)N[C@H]1CCC[C@@H]1Oc1ccc(Oc2ccc3nc(C(C)C)sc3c2Cl)cn1 [Compound I-106]
7,167 nM,CC(=O)N[C@@H](C)COc1cnc(Oc2ccc3nc(C(C)C)oc3c2Cl)cn1 [Compound I-037]
8,1760 nM,CC(=O)N[C@@H](C)CO[C@H]1CC[C@H](Oc2ncc3cc(Br)ccc3n2)CC1 [Compound I-079]
9,770 nM,CC(=O)N[C@@H](C)CC(=O)c1cnc(Oc2ccc(OCC3CC3)cc2Cl)s1 [Compound I-002]
10,128 nM,CCc1nsc2c(Cl)c(Oc3cnc(OC[C@H](C)NC(C)=O)cn3)ccc12 [Compound I-063]

# Same assay, conditions: Tables 155-159
row,IC50,SMILES
1,34 nM,CC(=O)N[C@@H](C)CO[C@H]1CC[C@H](Oc2ncc3c(Cl)c(OCC4CC4)ccc3n2)CC1 [Compound I-555]
2,14 nM,CC(=O)N[C@@H](C)CO[C@H]1C[C@H](COc2ncnc(OCc3ccccc3F)c2Cl)C1 [Compound I-388]
3,8 nM,CC(=O)N[C@@H](C)CO[C@H]1C[C@H](COc2ccc3nc(OC4CC(F)(F)C4)sc3n2)C1 [Compound I-218]
4,54 nM,CCN(C)c1nc2ccc(OC[C@H]3C[C@H](OC[C@H](C)NC(C)=O)C3)nc2s1 [Compound I-230]
5,891 nM,CC(=O)N[C@@H](C)CO[C@H]1CC[C@H](Oc2ccc3nc(N4CCC4c4ccccc4)sc3c2F)CC1 (stereo partly shown) [Compound I-237]
6,63 nM,CC(=O)N[C@@H](C)CO[C@H]1CC[C@H](Oc2ccc3nc(OCC(C)(C)C#N)sc3c2F)CC1 [Compound I-149]
7,68 nM,CC(=O)N[C@@H](C)CO[C@H]1C[C@H](COc2ccc3nc(Oc4ccc(F)nc4)sc3n2)C1 [Compound I-303]
8,8 nM,CC(=O)N[C@@H](C)CO[C@H]1CC[C@H](Oc2nc3cnc(OC4CC(F)(F)C4)c(Cl)c3n2C)CC1 [Compound I-693]
9,12 nM,CC(=O)N[C@@H](C)CO[C@H]1C[C@H](COc2ncnc3c2ccn3Cc2ccccc2)C1 [Compound I-430]
10,28 nM,CC(=O)N[C@@H](C)CO[C@H]1C[C@H](COc2ccc3nc(OC4CCOCC4)sc3n2)C1 [Compound I-243]
11,51 nM,CC(=O)N[C@@H](C)CO[C@H]1C[C@H](COc2ncnc3c2ccn3CC2CCCCC2)C1 [Compound I-449]
12,50 nM,CC(=O)N[C@@H](C)CO[C@H]1CC[C@H](Oc2ncnc(OCc3ncc(Cl)s3)c2Cl)CC1 [Compound I-455]
13,10 nM,C[C@@H](CO[C@H]1CC[C@H](Oc2nc3c(F)cc(OCC(F)F)c(F)c3n2C)CC1)NC(=O)N(C)C [Compound I-631]
14,12 nM,CC(=O)N[C@@H](C)CO[C@H]1C[C@H](COc2ncnc(OCc3ncc(F)s3)c2Cl)C1 [Compound I-441]
15,70 nM,CC(=O)N[C@@H](C)CO[C@H]1C[C@H](COc2ncnc(OCc3ncccc3Cl)c2Cl)C1 [Compound I-386]
16,172 nM,CC(=O)N[C@@H](C)CO[C@H]1CC[C@H](Oc2ncc(-c3ncc(C(C)C)cn3)cc2F)CC1 [Compound I-529]
17,31 nM,CC(=O)N[C@@H](C)CO[C@H]1C[C@H](COc2ncnc(Oc3noc4ccccc34)c2Cl)C1 [Compound I-397]

row,IC50,SMILES
1,447 nM,COc1ccc(-c2ncnc(OC[C@H]3C[C@H](OC[C@H](C)NC(C)=O)C3)c2C)cc1 [Compound I-420]
2,74 nM,CC(=O)N[C@@H](C)CO[C@H]1CC[C@H](Oc2ccc3nc(OC4CC4)n(C)c3n2)CC1 [Compound I-495]
3,9 nM,CC(=O)N[C@@H](C)CO[C@H]1C[C@H](COc2ccc3nc(OC4CCSCC4)sc3n2)C1 [Compound I-248]
4,63 nM,CC(=O)N[C@@H](C)CO[C@H]1C[C@H](COc2nccc(-c3ncc(C(F)(F)F)cn3)c2Cl)C1 [Compound I-322]
5,52 nM,CC(=O)N[C@@H](C)CO[C@H]1C[C@](F)(COc2ccc3nc(OC4CC4)sc3n2)C1 [Compound I-298]
6,14 nM,CC(=O)N[C@@H](C)CO[C@H]1C[C@H](COc2ncnc3c2c(F)cn3CC2CC2)C1 [Compound I-450]
7,148 nM,CC(=O)N[C@@H](C)CO[C@H]1C[C@H](COc2ccc3nc(C(C)(C)O)sc3c2F)C1 [Compound I-109]
8,8 nM,CCOc1ccc2nc(O[C@H]3CC[C@H](OC[C@H](C)NC(C)=O)CC3)n(C)c2c1F [Compound I-601]
9,42 nM,CC(=O)N[C@@H](C)CO[C@H]1C[C@H](COc2ncnc(OCc3cscn3)c2Cl)C1 [Compound I-412]
10,19 nM,CC(=O)N[C@@H](C)CO[C@H]1C[C@H](COc2ncnc3c2c(F)cn3CC2CC2(F)F)C1 (stereo partly shown) [Compound I-440]
11,7 nM,CCOc1cc(Cl)c2nc(O[C@H]3CC[C@H](OC[C@H](C)NC(C)=O)CC3)n(C)c2c1Cl [Compound I-739]
12,8 nM,CC(=O)N[C@@H](C)CO[C@H]1CC[C@H](Oc2ccc3nc(N4CC(F)(F)C4)sc3n2)CC1 [Compound I-208]
13,398 nM,CC(=O)N[C@@H](C)CO[C@H]1C[C@H](COc2cc3sc(C(C)C)nc3cn2)C1 [Compound I-126]
14,13 nM,CC(=O)N[C@@H](C)CO[C@H]1CC[C@H](Oc2nc3c(Cl)cc(OCC(F)F)c(F)c3n2C)CC1 [Compound I-742]
15,105 nM,CC(=O)N[C@@H](C)CO[C@H]1CC[C@H](Oc2nc3ccc(Br)cc3n2C)CC1 [Compound I-556]
16,25 nM,CC(=O)N[C@@H](C)[C@H](C)O[C@H]1CC[C@H](Oc2nc3cnc(OC4CC4)c(F)c3n2C)CC1 [Compound I-689]
